Results published in patent publication US11351130B2, “Prevention and reversal of inflammation induced DNA damage” (Indiana University Research and Technology Corporation, priority 2017, dated 2022).
pIC50: −log10 of the molar value.

How the values were obtained:
Pharmacokinetics (PK) = details: in vivo
Procedure: (§1) PK studies were performed in the IU Simon Cancer Center Clinical Pharmacology Analytical Core (CPAC), as previously described for E3330 (Fishel et al., 2011) and standards for the compounds used. P450 metabolism studies using human microsomes were also performed in CPAC directed by Dr. David Jones.

APE1 [1] = target: T1, APE1 (Homo sapiens, UniProt P27695); test: redox APE1 electrophoretic mobility shift assay (EMSA); type: biochemical; set-up: Purified APE1 was reduced with 1.0 mM DTT for 10 minutes; details: read-out: redox inhibition IC50
Procedure: EMSAs were performed as described (Luo et al., 2012). Purified APE1 was reduced with 1.0 mM DTT for 10 minutes and diluted to a final concentration of 0.006 mM with 0.02 mM DTT in PBS. Reduced APE1 was added to EMSA reaction buffer (10 mM Tris (pH 7.5), 50 mM NaCl, 1 mM MgCl2, 1 mM EDTA, 5% [vol/vol] glycerol) with […] 0.007 mM protein mixture (1:1) of purified truncated c-Jun and c-Fos proteins containing DNA-binding domain and leucine zipper and incubated for 30 minutes at room temperature. The EMSA assay was performed as previously described (Luo et al., 2008; Nyland et al., 2010; Kelley et al., 2011; Luo et al., 2012).

NFκB = test: NF-κB luciferase reporter transactivation assay; type: cell-based; details: read-out: inhibition of NFκB binding to the reporter construct, IC50
Procedure: Reporter assays were performed as previously described (Georgiadis et al., 2008; Kelley et al., 2011; Cardoso et al., 2012b; Luo et al., 2012). Cells were transfected with NF-κB-Luciferase construct containing an NF-κB-response promoter and driving the expression of a luciferase gene and a Renilla luciferase control reporter vector pRL-CMV. After a 24-hour transfection period, cells were lysed, and Firefly and Renilla luciferase activities were assayed using Renilla luciferase activity for normalization. All of the transfection experiments were performed in triplicate and repeated at least three times in independent experiments. Data are expressed as mean±standard error from a representative experiment, and Student's t tests were performed.

APE1 [2] = target: T1, APE1; test: AP endonuclease DNA repair assay; type: biochemical; details: APX2009 in the nanomolar range
Procedure: Inhibition or enhancement of APE1 DNA repair endonuclease activity was performed as previously described (Bapat et al., 2010). The APE1 repair activity assay was performed in a plate assay using two annealed oligonucleotides (5′-6-FAM-GCCCCC*[…]-3′ (SEQ ID NO:3) and 3′-Q-[…]-5′ (SEQ ID NO:4)) containing a quencher on one strand and a fluorescent 6-FAM label with tetrahydrofuran as an AP site mimic. Oligo cleavage at the AP mimic site results in 6-FAM release and detection. The fluorescence was read at five, one-minute intervals using a Tecan Ultra plate reader (Chemical Genomics Core, Indiana University School of Medicine). The rate of the reaction was used to determine the change in APE1 repair activity as compared to the vehicle control.

[3] = test system: sensory neurons in culture; type: cell-based, rat; details: for effect on cisplatin-induced reduction in capsaicin-evoked CGRP release: 72 hour treatment, 10 μM cisplatin
Procedure: (§2) Primary cultures of sensory neurons were harvested and maintained as previously described (Vasko et al., 2005). Briefly, adult male Sprague-Dawley rats (150-175 g; Harlan, Indianapolis, Ind.) were euthanized by CO2 asphyxiation and dorsal root ganglia (DRG) dissected from all spinal levels, transferred to into a collagenase solution (1 mg/ml), incubated for 1 hour at 37° C., then dissociated by mechanical agitation. Approximately 30,000 cells or 60,000 cells were plated into each well of 12-well or 6-well culture plates, respectively. All culture dishes were precoated with poly-D-lysine and laminin. Cells were maintained in F-12 media supplemented with 10% horse serum, 2 mM glutamine, 100 μg/ml Normocin™, 50 μg/ml penicillin, 50 μg/ml streptomycin, 50 μM 5-fluoro-2′-deoxyuridine (Invitrogen), 150 μM uridine, and 30 ng/ml of NGF in 3% CO2 at 37° C. Growth medium was changed every other day. Experiments were performed after cells were maintained in culture for 12-14 days.
For release experiments, cell cultures were washed with HEPES buffer consisting of (in mM) 25 HEPES, 135 NaCl, 3.5 KCl, 2.5 CaCl2, 1 MgCl2, 3.3 D-glucose, and 0.1% bovine serum albumin, pH 7.4 and maintained at 37° C. They then were incubated for successive 10-minute intervals with 0.4 ml of HEPES buffer alone (basal release), with buffer containing 30 nM capsaicin, then with buffer alone (to assess return to basal release). After each incubation, the buffer was removed and the amount of immunoreactive calcitonin-gene related peptide (CGRP) in each sample was measured using radioimmunoassay (RIA) as previously described (Chen et al., 1996). At the end of the release protocol, CGRP is extracted from the cultures and total content measured using RIA.

[4] = test system: Pa03C patient-derived PDAC cells; test: Tumor and CAF 3D co-cultures, tumor cells; type: cell-based, human; details: tumor alone or co-cultured with CAFs, 12 days in culture, vs vehicle control
Description: (§3) Patient-derived tumor cells and CAF19 cells were a kind gift from Dr. Anirban Maitra (The Johns Hopkins University M.D. Anderson Cancer Center) (Jones et al., 2008). All cell lines were authenticated via STR analysis (IDEXX BioResearch) and checked routinely for mycoplasma contamination. Ultra low attachment 96-well plates (Corning Inc., Life Sciences) were used to generate 3-dimensional tumor spheroids in the presence and absence of CAFs, as described previously (Sempere et al., 2011; Arpin, 2015). TdTomato-labeled PDAC cells and EGFP-labeled CAFs are resuspended in colorless DMEM media containing 3% Reduced Growth Factor Matrigel (BD Biosciences) and 5% FBS at a cell ratio of 1:4 (tumor:CAF) and fed on days 4 and 8 following plating. Both cell populations are quantitated for intensity and area via Thermo ArrayScan at day 12 of co-culture.

[5] = P450 metabolism analysis using human microsomes; type: in vitro ADME; details: human
Procedure: as §1

human microsomes = test: P450 metabolism analysis using human microsomes; type: in vitro ADME; details: vs E3330
Procedure: as §1

CAF19 cells = test: Tumor and CAF 3D co-cultures, CAFs; type: cell-based, human; details: co-culture with tumor cells, 12 days in culture
Description: as §3

[6] = test system: sensory neuronal cultures; test: phospho-H2AX immunoblotting in sensory neuronal cultures (Example 3); type: cell-based, rat; details: for effect on cisplatin-induced pH2AX levels (DNA damage): 20 μM for 48 hours prior to and throughout exposure to 10 μM cisplatin
Procedure: as §2
Immunoblotting was performed as previously described (Kelley et al., 2014). Briefly, cells were lysed in RIPA buffer (Santa Cruz Biotechnology; Santa Cruz, Calif., USA) and protein was quantified using the Lowey assay. Proteins were separated by electrophoresis on a 4-12% SDS-polyacrylamide gel. The gel was transferred to a PVDF membrane and incubated overnight at 4° C. in Tris-buffered saline containing 0.1% Tween-20 (TBST) and 5% nonfat dry milk while gently agitating. Mouse monoclonal antihuman Ape1 antibodies (1:500), mouse monoclonal anti-phospho H2AX antibodies (1:1000), or (3-Actin monoclonal antibody (1:1000) were added to the blocking solution and incubated overnight at room temperature while gently agitating. Antibody binding was detected following appropriate secondary antibody methods using chemiluminescence. The density of the bands was measured using QUALITYONE® software from Bio-Rad (Hercules, Calif.) and data expressed as density normalized to actin.

[7] = test system: sensory neuronal cultures; test: Neuronal cell viability (trypan blue exclusion); type: cell-based; details: for effect on cisplatin-induced cell death: 20 μM for 48 hours prior to and throughout the cisplatin treatment (24 hours)
Procedure: as §2
Sensory neuronal culture trypan blue exclusion analysis was performed as previously described (Vasko et al., 2011). Cells were detached by adding a 0.05% trypsin-EDTA solution and media to each well. An equal volume of 0.4% (w/v) trypan blue in PBS was added to the cell suspension and the numbers of living cells (i.e., those that exclude the dye) were counted under a phase contrast microscope using a hemacytometer. Percent survival was calculated as the percent of live cells divided by the total cell number (including dead and live cells).

APE1 [8] = test: APE1 expression (immunoblotting) after siRNA; type: cell-based, rat; details: 100 nM siRNA
Procedure: Small interfering RNAs to APE1 (APE1siRNA) and scrambled siRNA (SCsiRNA) controls were used to decrease APE1 protein expression in sensory neuronal cell cultures and as controls, respectively, as described previously (Vasko et al., 2005, Jiang et al., 2008a). On day 3 in culture, the growth media was replaced with 0.5 ml of Opti-MEM 1 media containing 100 nM of APE1siRNA (5′-[…]-3′ (SEQ ID NO:1)) or SCsiRNA (5′-[…]-3′(SEQ ID NO:2)); (Vasko et al., 2005)) and 10 μl of the transfecting reagent, Neuroporter. On the next day, 0.5 ml of the growth media without antibiotics was added to each well, and after an additional 24 hours the media containing siRNA was replaced with normal growth media.
Tissues or cells were harvested, lysed in RIPA buffer (Santa Cruz Biotechnology; Santa Cruz, Calif., USA), sonicated, and cleared of cellular debris by centrifuging at 4000 RPM for 2 minutes. Protein was quantified using Lowry assay, and electrophoresed in a 12% SDS-polyacrylamide gel. […] Antibody binding was detected following appropriate secondary antibody methods using chemiluminescence. The density of the bands was measured using Quantity One software from Bio-Rad (Hercules, Calif.) and data expressed as density normalized to vinculin.

T1 sequence (P27695 whole entry, species assumed, the tested form may be a part): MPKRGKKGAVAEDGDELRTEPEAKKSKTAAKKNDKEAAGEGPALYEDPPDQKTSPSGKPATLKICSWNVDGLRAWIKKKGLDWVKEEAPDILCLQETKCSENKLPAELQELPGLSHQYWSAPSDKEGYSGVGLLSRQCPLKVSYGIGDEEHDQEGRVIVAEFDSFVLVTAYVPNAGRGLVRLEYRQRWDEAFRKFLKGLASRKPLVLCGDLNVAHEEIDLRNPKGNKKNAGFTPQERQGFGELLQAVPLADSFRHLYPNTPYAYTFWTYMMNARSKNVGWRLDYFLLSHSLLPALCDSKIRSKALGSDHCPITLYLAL

## CCC/C(=C\C1=C(OC)C(=O)c2ccccc2C1=O)C(=O)N(CC)CC [APX2009, (2E)-2-[(3-methoxy-1,4-dioxo-1,4-dihydronaphthalen-2-yl)methylidene]-N,N-diethylpentanamide]
Pharmacokinetics (PK)
  half-life: 25.8 h
  half-life increase compared to E3330: ~7 fold
APE1 [1]
  pIC50: 6.00
NFκB
  pIC50: 5.15
APE1 [2]
  APE1 repair (endonuclease) activity: stimulation of APE1 repair activity
[3]; 10 μM
  effect on cisplatin-induced reduction in capsaicin-evoked CGRP release: did not prevent the cisplatin-induced reduction in release
[3]; 48 hours prior to and throughout exposure to oxaliplatin for 24 hours
  effect on oxaliplatin-induced decrease in CGRP release: prevented the oxaliplatin-induced decrease in CGRP release
[3]; 72 hours, E3330 20 μM, APX2009 10 or 20 μM, compared to untreated cells
  basal (resting) release or release of CGRP stimulated by 30 nM capsaicin, drug alone: no significant change
[4]
  tumor intensity and area in 3D spheroids: statistical differences were observed for the tumor alone or tumor co-cultured with CAFs
[5]
  half-life: 2.88 h
Human microsomes
  half-life increase, P450 metabolism analysis: 8.7 fold
CAF19 cells
  CAF intensity and area in 3D spheroids: not significantly affected
[6]
  effect on cisplatin-induced pH2AX levels (DNA damage): significantly reduced the levels of pH2AX
[6]; 20 μM, 24 and 48 hr treatments of 30 μM oxaliplatin
  phosphorylation of H2AX after oxaliplatin: significantly reduced the phosphorylation of H2AX
[7]
  effect on cisplatin-induced cell death: blocked
[7]; 10 or 20 μM, 72-hour treatment, oxaliplatin 24 hours
  protection from oxaliplatin-induced cell killing: protected the sensory neuronal cultures from cell killing
[7]; 24 hours, E3330 10, 20 or 40 μM, APX2009 various concentrations
  cell death / cell viability, drug alone: did not result in a significant reduction in cell viability

## COC1=C(/C=C(\C)C(=O)N(C)C)C(=O)c2ccccc2C1=O [APX2032]
APE1 [1]
  pIC50: 6.00
NFκB
  pIC50: 5.15
APE1 [2]
  APE1 repair (endonuclease) activity: no effect
[3]; 10 μM
  effect on cisplatin-induced reduction in capsaicin-evoked CGRP release: did block the effect of cisplatin
[3]; 10 μM, 72 hours
  CGRP release, drug alone: did not affect CGRP release
[3]; 20 μM, 72 hours
  capsaicin-stimulated release of CGRP, drug alone: significant increase in capsaicin-stimulated release
[6]
  effect on cisplatin-induced pH2AX levels (DNA damage): neither APX2007 nor APX2032 (20 μM) altered the ability of cisplatin to produce DNA damage
[7]
  effect on cisplatin-induced cell death: did not attenuate the cisplatin-induced cell death
[7]; 20 μM or 40 μM, 24 hours
  cell viability, drug alone: significant reduction in cell viability
[7]; 20 or 40 μM, 72 hours (data not shown)
  cell death, drug alone: significant increase in cell death

## APE1siRNA: Small interfering RNA to APE1, 5′-GUCUGGUAAGACUGGAGUACC-3′ (SEQ ID NO:1) (chemistry not given here)
APE1 [8]
  APE1 expression relative to wildtype expression: ~20%
